Laboratory results as given in publication PMC5429603, “Discovery and characterization of verinurad, a potent and specific inhibitor of URAT1 for the treatment of hyperuricemia and gout” (Scientific Reports, 2017).

How the values were obtained:
[1] = biological target: T1, rat URAT1 r-N35S/Y365F/M481I (Rattus norvegicus, UniProt Q3ZAV1, M481I/N35S/Y365F); assay: URAT1 activity assay, r-N35S/Y365F/M481I; assay type: cell-based
T1 construct: expressed in transfected cells; host or cells: HEK-293T
T1 sequence (Q3ZAV1 1-553 N35S/Y365F/M481I): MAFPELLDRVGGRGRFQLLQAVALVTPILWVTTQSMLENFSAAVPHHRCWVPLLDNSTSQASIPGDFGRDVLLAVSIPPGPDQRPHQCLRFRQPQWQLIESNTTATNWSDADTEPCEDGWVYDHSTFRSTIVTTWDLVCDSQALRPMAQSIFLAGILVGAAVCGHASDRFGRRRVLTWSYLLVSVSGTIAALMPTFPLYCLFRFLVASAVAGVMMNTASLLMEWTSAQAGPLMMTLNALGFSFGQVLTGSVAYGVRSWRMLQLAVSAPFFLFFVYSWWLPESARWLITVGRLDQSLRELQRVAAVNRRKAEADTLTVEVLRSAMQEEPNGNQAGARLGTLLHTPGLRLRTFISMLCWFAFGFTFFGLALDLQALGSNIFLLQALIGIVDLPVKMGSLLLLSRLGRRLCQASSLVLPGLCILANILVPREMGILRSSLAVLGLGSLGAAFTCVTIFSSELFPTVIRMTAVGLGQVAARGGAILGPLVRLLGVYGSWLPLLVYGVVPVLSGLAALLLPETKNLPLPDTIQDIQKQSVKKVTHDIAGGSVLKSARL
Excerpt: (§1) Human URAT1 (GenBank BC053348.1, Homo sapiens SLC22A12), rat URAT1 (NCBI NM_001034943.1, Rattus norvegicus Slc22a12) and human OAT4 (NCBI NM_018484.2, Homo sapiens SLC22A11) genes were purchased from Origene Technologies, Inc. and subcloned into pCMV6/neo using NotI. Where indicated, controls transfections used pCMV6/neo. Mutants were produced by site-directed mutagenesis using the QuikChange Lightning Multi Site-Directed Mutagenesis Kit (Agilent Technologies). […] Mutagenic primer sequences are provided in ref. [15] and mutagenic primer sequences for previously unreported mutants shown in Supplementary Table 1. All constructs used in this study were untagged. Human OAT1 was purchased from Fisher Scientific (catalog # MHS1010–7508183 in pSPORT6, NCBI NM_153276.2, Homo sapiens SLC22A6).
(§2) HEK-293T cells were maintained in DMEM/high glucose/L-glutamine/HEPES supplemented with 1 mM sodium pyruvate (Life Technologies) and 10% FBS (PAA Laboratories) at 37 °C in 5% CO2. To express URAT1, OAT4 or OAT1, plasmids were reverse transfected into HEK-293T cells. DNA (10 µg) was mixed with 30 µl of DreamFect Gold (Boca Scientific) in 2 ml OptiMem (Life Technologies). After 20 minutes, 18 ml of media containing 2 × 10^7 cells in suspension was added and mixed, and 200 µl per well were plated onto white clear-bottomed poly-D-lysine coated 96-well plates (BD Biosciences). The cells were assayed the following day.
URAT1 and OAT4 activity assays were performed in assay buffer consisting of 25 mM MES pH 5.5 (from a 1 M MES solution [Sigma] adjusted to pH 5.5 with sodium hydroxide), 125 mM sodium gluconate, 4.8 mM potassium gluconate, 1.2 mM monobasic potassium phosphate, 1.2 mM magnesium sulfate, 1.3 mM calcium gluconate and 5.6 mM glucose. URAT1 inhibitors were serially diluted into assay buffer and added to the cells for 5 minutes prior to addition of substrate. URAT1-expressing cells were incubated with 100 µM ^14C-uric acid for 10 minutes and OAT4-expressing cells were incubated with 20 µM carboxyfluorescein (Life Technologies, Inc.) for 5 minutes. […] Each treatment was measured in triplicate.

[2] = biological target: T2, human URAT1 h-F449Y (Homo sapiens, UniProt Q96S37, F449Y); assay: URAT1 activity assay, h-F449Y; assay type: cell-based
T2 construct: expressed in transfected cells; host or cells: HEK-293T
T2 sequence (Q96S37 1-553 F449Y): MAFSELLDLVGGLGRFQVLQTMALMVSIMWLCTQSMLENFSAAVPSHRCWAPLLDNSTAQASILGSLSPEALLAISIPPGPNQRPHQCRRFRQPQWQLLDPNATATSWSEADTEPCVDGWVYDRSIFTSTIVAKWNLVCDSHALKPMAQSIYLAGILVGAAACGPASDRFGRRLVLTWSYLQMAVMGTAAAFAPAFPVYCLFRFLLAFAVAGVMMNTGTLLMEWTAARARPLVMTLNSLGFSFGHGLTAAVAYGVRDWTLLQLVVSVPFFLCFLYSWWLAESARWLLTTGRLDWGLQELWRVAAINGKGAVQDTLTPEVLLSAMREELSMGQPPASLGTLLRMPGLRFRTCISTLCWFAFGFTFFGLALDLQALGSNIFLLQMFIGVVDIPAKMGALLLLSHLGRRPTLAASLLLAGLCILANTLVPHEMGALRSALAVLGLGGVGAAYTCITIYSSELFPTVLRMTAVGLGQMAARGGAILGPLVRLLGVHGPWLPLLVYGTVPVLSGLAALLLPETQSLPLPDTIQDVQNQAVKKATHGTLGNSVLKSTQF
Excerpt: as §1, §2
URAT1 and OAT4 activity assays were performed in assay buffer consisting of 25 mM MES pH 5.5 (from a 1 M MES solution [Sigma] adjusted to pH 5.5 with sodium hydroxide), 125 mM sodium gluconate, 4.8 mM potassium gluconate, 1.2 mM monobasic potassium phosphate, 1.2 mM magnesium sulfate, 1.3 mM calcium gluconate and 5.6 mM glucose. URAT1 inhibitors were serially diluted into assay buffer and added to the cells for 5 minutes prior to addition of substrate. URAT1-expressing cells were incubated with 100 µM ^14C-uric acid for 10 minutes and OAT4-expressing cells were incubated with 20 µM carboxyfluorescein (Life Technologies, Inc.) for 5 minutes. Cells were then washed three times in 25 mM MES pH 5.5/125 mM sodium gluconate, and solubilized in Ultima Gold (Perkin Elmer) prior to liquid scintillation counting. Each treatment was measured in triplicate.

[3] = biological target: T3, human URAT1-F449Y (Homo sapiens, UniProt Q96S37, F449Y); assay: URAT1 binding assay with 3H-verinurad, h-F449Y membranes
T3 construct: expressed in transfected cells; host or cells: HEK-293T
Description: The plates were then subjected to scintillation counting. All samples were assayed in triplicate.

[4] = biological target: T4, rat URAT1 r-M481I (Rattus norvegicus, UniProt Q3ZAV1, M481I); assay: URAT1 activity assay, r-M481I; assay type: cell-based
T4 construct: expressed in transfected cells; host or cells: HEK-293T
T4 sequence (Q3ZAV1 whole entry M481I): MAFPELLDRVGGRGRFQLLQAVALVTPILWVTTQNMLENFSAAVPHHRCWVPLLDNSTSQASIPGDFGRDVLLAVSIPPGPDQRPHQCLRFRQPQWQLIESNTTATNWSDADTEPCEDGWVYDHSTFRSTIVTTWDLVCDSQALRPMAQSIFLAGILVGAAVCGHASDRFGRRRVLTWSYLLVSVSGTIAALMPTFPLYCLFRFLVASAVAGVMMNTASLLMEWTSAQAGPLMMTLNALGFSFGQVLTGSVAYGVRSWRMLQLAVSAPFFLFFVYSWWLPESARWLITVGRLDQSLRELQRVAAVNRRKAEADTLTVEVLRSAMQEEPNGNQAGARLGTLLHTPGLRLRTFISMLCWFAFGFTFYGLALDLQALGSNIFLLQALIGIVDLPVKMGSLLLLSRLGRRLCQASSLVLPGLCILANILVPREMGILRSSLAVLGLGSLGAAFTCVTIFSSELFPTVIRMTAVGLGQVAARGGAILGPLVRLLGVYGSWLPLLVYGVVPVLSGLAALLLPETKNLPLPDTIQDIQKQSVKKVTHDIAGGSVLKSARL
Excerpt: as §1
(§3) HEK-293T cells were maintained in DMEM/high glucose/L-glutamine/HEPES supplemented with 1 mM sodium pyruvate (Life Technologies) and 10% FBS (PAA Laboratories) at 37 °C in 5% CO2. […]
(§4) URAT1 and OAT4 activity assays were performed in assay buffer consisting of 25 mM MES pH 5.5 (from a 1 M MES solution [Sigma] adjusted to pH 5.5 with sodium hydroxide), 125 mM sodium gluconate, 4.8 mM potassium gluconate, 1.2 mM monobasic potassium phosphate, 1.2 mM magnesium sulfate, 1.3 mM calcium gluconate and 5.6 mM glucose. […] Each treatment was measured in triplicate.

[5] = biological target: T5, human URAT1 h-L31V (Homo sapiens, UniProt Q96S37, L31V); assay: URAT1 activity assay, h-L31V; assay type: cell-based; settings: TM1 point mutant, read-out: Verinurad affinity (IC50)
T5 construct: expressed in transfected cells; host or cells: HEK-293T
T5 sequence (Q96S37 whole entry L31V): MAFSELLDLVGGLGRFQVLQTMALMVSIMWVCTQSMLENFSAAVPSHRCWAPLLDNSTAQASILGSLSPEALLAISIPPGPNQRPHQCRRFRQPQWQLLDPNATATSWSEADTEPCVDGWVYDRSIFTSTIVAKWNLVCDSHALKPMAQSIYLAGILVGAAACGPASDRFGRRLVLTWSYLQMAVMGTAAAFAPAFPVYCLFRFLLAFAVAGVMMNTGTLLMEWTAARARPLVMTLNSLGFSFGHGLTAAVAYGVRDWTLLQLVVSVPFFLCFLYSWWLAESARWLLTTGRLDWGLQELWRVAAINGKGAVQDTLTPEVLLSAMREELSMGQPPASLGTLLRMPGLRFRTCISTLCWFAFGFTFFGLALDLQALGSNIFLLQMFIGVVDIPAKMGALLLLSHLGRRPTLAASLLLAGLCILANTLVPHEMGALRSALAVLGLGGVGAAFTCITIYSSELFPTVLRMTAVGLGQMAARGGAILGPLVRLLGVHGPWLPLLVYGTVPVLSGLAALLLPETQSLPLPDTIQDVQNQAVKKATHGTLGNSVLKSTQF
Excerpt: as §1, §3, §4

[6] = biological target: T6, rat URAT1 r-N35S (Rattus norvegicus, UniProt Q3ZAV1, N35S); assay: URAT1 activity assay, r-N35S; assay type: cell-based
T6 construct: expressed in transfected cells; host or cells: HEK-293T
T6 sequence (Q3ZAV1 whole entry N35S): as the sequence (Q3ZAV1 whole entry M481I) above, with N35S, I481M counted along it
Excerpt: as §1, §3, §4

`CC(C)(Sc1ccncc1-c1ccc(C#N)c2ccccc12)C(=O)O` [Verinurad, 2-((3-(4-cyanonaphthalen-1-yl)pyrindin-4-yl)thio)-2-methylpropanoic acid] was tested, and the “fold higher affinity compared to rat URAT1” value ([1]; r-N35S/Y365F/M481I) was about 300 fold, the “fold lower affinity compared to human URAT1” value ([1]; r-N35S/Y365F/M481I) was 6 fold and the IC50 ([1]; r-N35S/Y365F/M481I triple point mutant) was 140 nM. The “fold reduced affinity compared to human URAT1” value ([2]; h-F449Y) was “the same affinity”, the IC50 ([2]; h-F449Y binding site point mutant) was 25 nM and the IC50 ([3]; h-F449Y membranes, read-out: IC50, inhibition of 3H-verinurad binding to h-F449Y) was 5.9 nM. The “fold reduced potency at h-F449Y compared to wild type human URAT1, binding assay” value ([3]; h-F449Y vs human URAT1) was “the same affinity”, the “fold increase in affinity compared to rat URAT1” value [4] was 4 fold and the IC50 ([4]; TM11 point mutant, read-out: Verinurad affinity (IC50)) was 11000 ± 3100 nM. For the same compound, the IC50 [5] was 31 ± 10 nM, the “fold higher affinity relative to rat URAT1” value [6] was 4 fold and the IC50 ([6]; TM1 point mutant, read-out: Verinurad affinity (IC50)) was 10000 ± 1500 nM.
